Data taken from ChEMBL document CHEMBL1130945, “Rapid optimization of an ICE inhibitor synthesis using multiple reaction conditions in a parallel array” (Bioorg Med Chem Lett, 1998).

How the values were obtained:
[1] = biological target: T1, Caspase-1 (Homo sapiens, UniProt P29466, D381E); assay: Compound was tested for inhibitory activity against N-His (D381E) Interleukin -1 beta converting enzyme (combinatorially prepared compound)
[2] = biological target: T1, Caspase-1; assay: Compound was tested for binding affinity against N-His (D381E) Interleukin -1 beta converting enzyme
[3] = biological target: T1, Caspase-1; assay: Compound was tested for inhibitory activity against N-His (D381E) Interleukin -1 beta converting enzyme (resynthesized compound)

T1 sequence (P29466 120-297 limits assumed): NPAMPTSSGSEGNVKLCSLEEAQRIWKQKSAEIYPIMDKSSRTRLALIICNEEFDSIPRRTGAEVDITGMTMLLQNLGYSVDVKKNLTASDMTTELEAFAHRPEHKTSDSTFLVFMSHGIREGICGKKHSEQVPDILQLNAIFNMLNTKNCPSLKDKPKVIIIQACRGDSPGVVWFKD
T1 sequence (P29466 317-404 D381E limits assumed): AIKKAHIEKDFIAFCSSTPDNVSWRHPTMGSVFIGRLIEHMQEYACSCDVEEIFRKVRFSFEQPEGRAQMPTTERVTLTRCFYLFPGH

IC50 [1] | Ki [2] | IC50 [3] | SMILES
742 nM | – | – | O=C(O)C[C@H](NC(=O)OCc1ccccc1)C(=O)COC(=O)Cc1c(Cl)cccc1Cl
12000 nM | 4500 nM | 35000 nM | O=C(O)C[C@H](NC(=O)OCc1ccccc1)C(=O)COC(=O)CCc1ccccc1
936 nM | – | – | O=C(O)C[C@H](NC(=O)OCc1ccccc1)C(=O)COC(=O)Cc1c(Cl)ccc(Cl)c1Cl
5 nM | 113 nM | 7 nM | CC(=O)NC(C(=O)N[C@@H](CC(=O)O)C(=O)COC(=O)Cc1c(Cl)ccc(Cl)c1Cl)C(C)C (stereo partly specified)
5 nM | 82 nM | 8 nM | CC(=O)NC(C(=O)N[C@@H](CC(=O)O)C(=O)COC(=O)Cc1c(Cl)cccc1Cl)C(C)C (stereo partly specified)
